These results are taken from patent publication US4450115A, “Amino-alcohol derivatives” (Kyowa Hakko Kogyo Co., Ltd., priority 1979, dated 1984).

Counter-ions that a name gives are not always drawn. Like-named read-outs stand apart in the source and are kept apart here. Bounds are passed on as bounds.

Data set [1] relates to main artery of the dogs' organ. Put plainly: Effect on organ blood flow.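 Note: percent change relative to blood flow before compound administration.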 In kind it is in vivo, mongrel dogs. The conditions noted are these: Canis lupus familiaris, iv, Table 5, femoral vein. The protocol: (§1) In experiments (a), (b), (c) and (d), 3-4 male or female mongrel dogs (weight: 10-20 Kg) as one group were anesthetized by intravenous administration of 30 mg/kg of pentobarbital-Na. All compounds were dissolved in polyethylene glycol 400 and administered to the femoral vein.
(b) Effect on organ blood flow M (%)
In this test, 1 mg/kg of each compound shown in Tables 5 and 7 is administered to the dogs and an electromagnetic probe is attached to the main artery of the dogs' organ to measure the flow of blood.

A further data set in a line: in vivo. The conditions noted are these: mouse, male dd-strain mice. The source says:
The test compounds were orally administered to male dd-strain mice weighing 20-25 g.

In another data set the test system is α-adrenergic receptor. Nature of the data set: α blocking activity (inhibition of Norepinephrine-induced increase in systolic blood pressure). In kind it is in vivo, mongrel dogs. The conditions noted are these: Table 6, dogs, 3 μg/kg Norepinephrine i.v. As for the experimental part: as §1
(c-1) α blocking activity
In this test, 3 μg/kg of Norepinephrine is intravenously administered to the dogs to cause an increase in systolic blood pressure.

The test system of another data set is β1-adrenergic receptor. Nature of the data set: β1 blocking activity (inhibition of Isoproterenol-induced increase in heart rate). In kind it is in vivo, mongrel dogs. The conditions noted are these: Table 6, dogs, 0.5 μg/kg Isoproterenol i.v. As for the experimental part: as §1
(c-2) β1 blocking activity
In this test, 0.5 μg/kg of Isoproterenol is intravenously administered to the dogs to cause an increase in the heart rate.

The subject of another data set is β2-adrenergic receptor. Put plainly: β2 blocking activity (inhibition of Isoproterenol-induced decrease in diastolic blood pressure). In kind it is in vivo, mongrel dogs. The conditions noted are these: Table 6, dogs, 0.5 μg/kg Isoproterenol i.v. As for the experimental part: as §1
(c-3) β2 blocking activity
In this test, 0.5 μg/kg of Isoproterenol is intravenously administered to the dogs to cause a decrease in diastolic blood pressure.

[2] abbreviates: read-out: Organ blood flow, Crotch (percentage change).
The mark [3] stands for this setting: read-out: Organ blood flow, Malleus (percentage change).

Turning to `Cc1cccc(OCC(O)CNCC2COc3ccccc3O2)c1` (stereo not drawn) [Compound 1, 1-(3-methylphenoxy)-3-(1,4-benzodioxane-2-methaneamino)-2-propanol], the change in vivo at 1 mg/kg is 35% in data set [1] (setting [2]) and 67% in data set [1] (setting [3]). Moreover, the LD50 (as a rule, the dose expected to kill half of the subjects tested) in “in vivo” (Table 5, oral) fell in the range of 1000 to 2000 mg/kg.
With `CC(=O)Nc1ccc(OCC(O)CNCC2COc3ccccc3O2)cc1` (stereo not drawn) [Compound 2, 1-(4-acetamidophenoxy)-3-(1,4-benzodioxane-2-methaneamino)-2-propanol], the change in vivo at 1 mg/kg in data set [1] (setting [2]) is 20%; in data set [1] (setting [3]), 50%. The same compound gave an LD50 in the data set “in vivo” (Table 5, oral) of 500 to 1000 mg/kg.
`N#Cc1ccccc1OCC(O)CNCC1COc2ccccc2O1` (stereo not drawn) [Compound 3, 1-(2-cyanophenoxy)-3-(1,4-benzodioxane-2-methaneamino)-2-propanol]: the change in vivo at 1 mg/kg in data set [1] (setting [2]) is -21%; in data set [1] (setting [3]), 18%. Moreover, in the data set “in vivo” (Table 5, oral), the LD50 worked out at 420 mg/kg.
As for `CCOC(=O)Cc1ccc(OCC(O)CNCC2COc3ccccc3O2)cc1` (stereo not drawn) [Compound 5, 1-(4-ethoxycarbonylmethyl)phenoxy-3-(1,4-benzodioxane-2-methaneamino)-2-propanol], the change in vivo at 1 mg/kg in data set [1] (setting [2]) was -26%; in data set [1] (setting [3]) it was -84%. The LD50 in “in vivo” (Table 5, oral) was above 1000 mg/kg.
`Cc1cccc(OCC(O)CNCC2COc3ccccc3O2)c1C` (stereo not drawn) [Compound 6, 1-(2,3-dimethylphenoxy)-3-(1,4-benzodioxane-2-methaneamino)-2-propanol]: the results for the change in vivo at 1 mg/kg in data set [1] (setting [2]) and in data set [1] (setting [3]) were 17% and -9%, respectively. Besides, in “in vivo” (Table 5, oral), the 50% lethal dose (LD50) is above 1000 mg/kg.
Consider `OC(CNCC1COc2ccccc2O1)COc1cccc2ccccc12` (stereo not drawn) [Compound 7, 1-(1-naphthyloxy)-3-(1,4-benzodioxane-2-methaneamino)-2-propanol], for which the change in vivo at 1 mg/kg is -36% in data set [1] (setting [2]) and 59% in data set [1] (setting [3]). In “in vivo” (Table 5, oral), this compound showed an LD50 above 1000 mg/kg.
On to `COc1ccc(C(O)C(C)NCC2COc3ccccc3O2)cc1C` (stereo not drawn) [Compound 8, 1-(3-methyl-4-methoxy)phenyl-2-(1,4-benzodioxane-2-methaneamino)propanol], for which the change in vivo at 1 mg/kg in data set [1] (setting [2]) was -67%; in data set [1] (setting [3]), -4%. In addition, in the data set “in vivo” (Table 5, oral), the LD50 was 450 mg/kg.
For `Cc1c(C(O)CNCC2COc3ccccc3O2)oc2ccc(F)cc12` (stereo not drawn) [Compound 9, 1-(5-fluoro-3-methyl-2-benzofuranyl)-2-(1,4-benzodioxane-2-methaneamino)ethanol], the change in vivo at 1 mg/kg in data set [1] (setting [2]) amounted to 42%; in data set [1] (setting [3]), 35%.
Taken in the same sequence, the figures for `COC(=O)c1cc(C(O)CNCC2COc3ccccc3O2)ccc1O` (stereo not drawn) [Compound 10, 1-(3-methoxycarbonyl-4-hydroxy)phenyl-2-(1,4-benzodioxane-2-methaneamino)ethanol] were -50% and -16%.
With `CC(CCc1ccccc1)NCC(O)COc1ccc(CC(N)=O)cc1` (stereo not drawn) [Compound 11, 1-(4-carbamoylmethylphenoxy)-3-(1-methyl-3-phenylpropylamino)-2-propanol], the “α blocking activity, percentage inhibition” value with α-adrenergic receptor (*dose of compound 1 mg/kg) was -78%. The “β1 blocking activity, percentage inhibition” value in the data set with β1-adrenergic receptor (*dose of compound 1 mg/kg) was -86%. In addition, the “β2 blocking activity, percentage inhibition” value in the data set with β2-adrenergic receptor (*dose of compound 1 mg/kg) is -22%. For the same compound, the LD50 in “in vivo” (Table 6, oral) is above 1000 mg/kg.
With `CC(CCc1ccccc1)NCC(O)COc1ccccc1C#N` (stereo not drawn) [Compound 12, 1-(2-cyanophenoxy)-3-(1-methyl-3-phenylpropylamino)-2-propanol], the “α blocking activity, percentage inhibition” value in the data set on α-adrenergic receptor (*dose of compound 1 mg/kg) is recorded as -52%. Further, in the data set with β1-adrenergic receptor (*dose of compound 1 mg/kg), the “β1 blocking activity, percentage inhibition” value was -100%. Besides, the “β2 blocking activity, percentage inhibition” value in the data set on β2-adrenergic receptor (*dose of compound 1 mg/kg) is given as -100%. In “in vivo” (Table 6, oral), the LD50 lay in the range of 125 to 250 mg/kg.
Take `Cc1cccc(OCC(O)CNC(C)CCc2ccccc2)c1C` (stereo not drawn) [Compound 13, 1-(2,3-dimethylphenoxy)-3-(1-methyl-3-phenylpropylamino)-2-propanol]: the “α blocking activity, percentage inhibition” value in the data set on α-adrenergic receptor (test compound 0.1 mg/kg) is recorded as -20%. Also, the “β1 blocking activity, percentage inhibition” value in the data set on β1-adrenergic receptor (test compound 0.1 mg/kg) is reported as -73%. The “β2 blocking activity, percentage inhibition” value in the data set on β2-adrenergic receptor (test compound 0.1 mg/kg) is listed as -34%. The same compound came in with a median lethal dose (LD50) in the data set “in vivo” (Table 6, oral) of 500 to 1000 mg/kg.
For `CCOC(=O)Cc1ccc(OCC(O)CNC(C)CCc2ccccc2)cc1` (stereo not drawn) [Compound 14, 1-(4-ethoxycarbonylmethylphenoxy)-3-(1-methyl-3-phenylpropylamino)-2-propanol], in that order: “+13%”, -11%, “+2%” and above 1000 mg/kg.
For `COC(=O)c1ccccc1OCC(O)CNC(C)CCc1ccccc1` (stereo not drawn) [Compound 15, 1-(2-methoxycarbonylphenoxy)-3-(1-methyl-3-phenylpropylamino)-2-propanol], in that order: -2%, -30%, -40% and 500 to 1000 mg/kg.
Taken in the same sequence, the figures for `CC(CCc1ccccc1)NCC(O)COc1ccccc1C(N)=O` (stereo not drawn) [Compound 16, 1-(2-carbamoylphenoxy)-3-(1-methyl-3-phenylpropylamino)-2-propanol] were -28%, -57%, -19% and 250 to 500 mg/kg.
Regarding `CC(CCc1ccccc1)NCC(O)COc1ccc(CC(=O)O)cc1` (stereo not drawn) [Compound 17, 1-(4-carboxymethylphenoxy)-3-(1-methyl-3-phenylpropylamino)-2-propanol], in the data set on α-adrenergic receptor (test compound 0.1 mg/kg), the “α blocking activity, percentage inhibition” value was “+15%”. Also, the “β1 blocking activity, percentage inhibition” value in the data set with β1-adrenergic receptor (test compound 0.1 mg/kg) is listed as “+13%”. Further, in the data set with β2-adrenergic receptor (test compound 0.1 mg/kg), the “β2 blocking activity, percentage inhibition” value is reported as -13%. In the data set “in vivo” (Table 6, oral), this compound gave an LD50 above 1000 mg/kg.
Taken in the same sequence, the figures for `CC(CCc1ccccc1)NCC(O)COc1ccc(CC(=O)NN)cc1` (stereo not drawn) [Compound 18, 1-(4-hydrazinocarbonylmethylphenoxy)-3-(1-methyl-3-phenylpropylamino)-2-propanol] were “+10%”, -3%, “+2%” and above 1000 mg/kg.
For `CCOC(=O)Cc1cccc(OCC(O)CNC(C)CCc2ccccc2)c1` (stereo not drawn) [Compound 19, 1-(3-ethoxycarbonylmethylphenoxy)-3-(1-methyl-3-phenylpropylamino)-2-propanol], in that order: “+23%”, -7%, “+14%” and above 1000 mg/kg.
For `CC(CCc1ccccc1)NCC(O)COc1cccc(CC(N)=O)c1` (stereo not drawn) [Compound 20, 1-(3-carbamoylmethylphenoxy)-3-(1-methyl-3-phenylpropylamino)-2-propanol], in that order: “+7%”, -9%, “+9%” and above 1000 mg/kg.
With `CCOC(=O)Cc1ccc(C(O)CNC(C)CCc2ccccc2)cc1` (stereo not drawn) [Compound 21, 1-(4-ethoxycarbonylmethylphenyl)-2-(1-methyl-3-phenylpropylamino) ethanol], the “α blocking activity, percentage inhibition” value with α-adrenergic receptor (test compound 0.1 mg/kg) was “+9%”. For the same compound, the “β1 blocking activity, percentage inhibition” value with β1-adrenergic receptor (test compound 0.1 mg/kg) is reported as -10%. Moreover, the “β2 blocking activity, percentage inhibition” value in the data set on β2-adrenergic receptor (test compound 0.1 mg/kg) is -8%. Besides, in “in vivo” (Table 6, oral), the LD50 is above 1000 mg/kg.
On to `CC(=O)Nc1ccc(OCC(O)CNCc2ccc3c(c2)OCCO3)cc1` (stereo not drawn) [Compound 23, 1-(4-acetamidophenoxy)-3-(1,4-benzodioxane-6-methaneamino)-2-propanol], for which the change in vivo at 1 mg/kg in data set [1] (setting [2]) is 90%; in data set [1] (setting [3]), 67%. The LD50 in the data set “in vivo” (Table 5, oral) is above 1000 mg/kg.
For `O=C1CCCc2c(OCC(O)CNCc3ccc4c(c3)OCCO4)cccc21` (stereo not drawn) [Compound 24, 1-{3,4-dihydro-1(2H)-naphthalenon-5-yl}oxy-3-(1,4-benzodioxane-6-methaneamino)-2-propanol], in that order: 106%, 60% and above 1000 mg/kg.
In the case of `NC(=O)Cc1ccc(OCC(O)CNCc2ccc3c(c2)OCCO3)cc1` (stereo not drawn) [Compound 25, 1-(4-carbamoylmethylphenoxy)-3-(1,4-benzodioxane-6-methaneamino)-2-propano], the change in vivo at 1 mg/kg stood at 90% in data set [1] (setting [2]) and 22% in data set [1] (setting [3]). In the data set “in vivo” (Table 5, oral), this compound returned an LD50 above 1000 mg/kg.
With `CC(CCc1ccccc1)NCC(O)c1ccc(O)c(C(N)=O)c1` (stereo not drawn) [Reference compound, 5-[1-hydroxy-2-(1-methyl-3-phenylpropyl)aminoethyl] salicylamide hydrochloride, reference compound], the “α blocking activity, percentage inhibition” value with α-adrenergic receptor (test compound 0.1 mg/kg) is recorded as -32%. The “β1 blocking activity, percentage inhibition” value in the data set on β1-adrenergic receptor (test compound 0.1 mg/kg) is -69%. The “β2 blocking activity, percentage inhibition” value in the data set on β2-adrenergic receptor (test compound 0.1 mg/kg) is given as -50%.
